Measured values taken from ChEMBL document CHEMBL1201862, “PubChem BioAssay data set” (2004).
Where “and” joins values, the source holds several entries; their conditions need not be identical. Identical values can stand only once.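 Cultured in 96-well plates, cells were exposed to test compound for 48 hours across five concentrations. At the GI50, growth is halved.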 Calls of active or inactive are those of the source. No stated cut-off is given here; in the data, active = GI50 up to about 1.1 µM and inactive = higher.

How the values were obtained:
Experiment in all cases: DTP human tumour cell line panel, 48 h
SK-OV-3 = tested on: SK-OV-3
OVCAR-4 = tested on: OVCAR-4
NCI-H522 = tested on: NCI-H522
SK-MEL-28 = tested on: SK-MEL-28
SN12C = tested on: SN12C
HL-60 = tested on: HL-60
CAKI-1 = tested on: CAKI-1
A549 = tested on: A549
M19-MEL = tested on: M19-MEL
NCI-H226 = tested on: NCI-H226
UO-31 = tested on: UO-31
OVCAR-5 = tested on: OVCAR-5
U-251 = tested on: U-251
SF-268 = tested on: SF-268
COLO 205 = tested on: COLO 205
K562 = tested on: K562
UACC-257 = tested on: UACC-257
HT-29 = tested on: HT-29
DMS-273 = tested on: DMS-273
MOLT-4 = tested on: MOLT-4
RXF 631 = tested on: RXF 631
CCRF-CEM = tested on: CCRF-CEM
HOP-18 = tested on: HOP-18
DLD-1 = tested on: DLD-1
RXF 393 = tested on: RXF 393
SW-620 = tested on: SW-620
DMS-114 = tested on: DMS-114
SF-539 = tested on: SF-539
ACHN = tested on: ACHN
UACC-62 = tested on: UACC-62
NCI-H23 = tested on: NCI-H23
SNB-19 = tested on: SNB-19
TK-10 = tested on: TK-10
KM12 = tested on: KM12
KM-20L2 = tested on: KM-20L2
SK-MEL-5 = tested on: SK-MEL-5
HOP-62 = tested on: HOP-62
M14 = tested on: M14
HCT-116 = tested on: HCT-116
HCC 2998 = tested on: HCC 2998
Malme-3M = tested on: Malme-3M
SR = tested on: SR
LOX IMVI = tested on: LOX IMVI
XF498 = tested on: XF498
EKVX = tested on: EKVX
A498 = tested on: A498
LXFL 529 = tested on: LXFL 529
786-0 = tested on: 786-0
IGROV-1 = tested on: IGROV-1
SF-295 = tested on: SF-295
OVCAR-3 = tested on: OVCAR-3
OVCAR-8 = tested on: OVCAR-8
SNB-75 = tested on: SNB-75
HOP-92 = tested on: HOP-92
MDA-MB-231 = tested on: MDA-MB-231
SK-MEL-2 = tested on: SK-MEL-2
RPMI-8226 = tested on: RPMI-8226
MDA-MB-435 = tested on: MDA-MB-435
NCI/ADR-RES = tested on: NCI/ADR-RES
MDA-N = tested on: MDA-N
SNB-78 = tested on: SNB-78
NCI-H460 = tested on: NCI-H460
T47D = tested on: T47D
HCT-15 = tested on: HCT-15
PC-3 = tested on: PC-3
BT-549 = tested on: BT-549
Hs-578T = tested on: Hs-578T
DU-145 = tested on: DU-145
MCF7 = tested on: MCF7

## Fc1cccc2cc3ccc4cccc5ccc(c12)c3c45
SK-OV-3
  GI50: 771 nM (active)
OVCAR-4
  GI50: > 100 µM (inactive)
NCI-H522
  GI50: > 100 µM (inactive)
SK-MEL-28
  GI50: > 100 µM (inactive)
SN12C
  GI50: > 100 µM (inactive)
HL-60
  GI50: > 100 µM (inactive)
CAKI-1
  GI50: > 100 µM (inactive)
A549
  GI50: > 100 µM (inactive)
M19-MEL
  GI50: > 100 µM (inactive)
NCI-H226
  GI50: 7.66 µM (inactive)
UO-31
  GI50: > 100 µM (inactive)
OVCAR-5
  GI50: 7.4 µM (inactive)
U-251
  GI50: > 100 µM (inactive)
SF-268
  GI50: > 100 µM (inactive)
COLO 205
  GI50: > 100 µM (inactive)
K562
  GI50: > 100 µM (inactive)
UACC-257
  GI50: > 100 µM (inactive)
HT-29
  GI50: > 100 µM (inactive)
DMS-273
  GI50: 0.296 µM (active)
MOLT-4
  GI50: > 100 µM (inactive)
RXF 631
  GI50: > 100 µM (inactive)
CCRF-CEM
  GI50: > 100 µM (inactive)
HOP-18
  GI50: 1.72 µM (inactive)
DLD-1
  GI50: 509 nM (active)
RXF 393
  GI50: > 100 µM (inactive)
SW-620
  GI50: > 100 µM (inactive)
DMS-114
  GI50: > 100 µM (inactive)
SF-539
  GI50: > 100 µM (inactive)
ACHN
  GI50: > 100 µM (inactive)
UACC-62
  GI50: > 100 µM (inactive)
NCI-H23
  GI50: 1.63 µM (inactive)
SNB-19
  GI50: > 100 µM (inactive)
TK-10
  GI50: 0.721 µM (active)
KM12
  GI50: > 100 µM (inactive)
KM-20L2
  GI50: > 100 µM (inactive)
SK-MEL-5
  GI50: > 100 µM (inactive)
HOP-62
  GI50: > 100 µM (inactive)
M14
  GI50: > 100 µM (inactive)
HCT-116
  GI50: > 100 µM (inactive)
HCC 2998
  GI50: 7.52 µM (inactive)
Malme-3M
  GI50: > 100 µM (inactive)
SR
  GI50: 0.0146 µM (active)
LOX IMVI
  GI50: > 100 µM (inactive)
XF498
  GI50: > 100 µM (inactive)
EKVX
  GI50: 2.66 µM (inactive)
A498
  GI50: > 100 µM (inactive)
LXFL 529
  GI50: > 100 µM (inactive)
786-0
  GI50: > 100 µM (inactive)
IGROV-1
  GI50: > 100 µM (inactive)
SF-295
  GI50: > 100 µM (inactive)
OVCAR-3
  GI50: > 100 µM (inactive)
OVCAR-8
  GI50: > 100 µM (inactive)
SNB-75
  GI50: > 100 µM (inactive)

## COC(=O)Cc1cc(O)c2c(c1O)C(=O)c1ccccc1C2=O
SK-OV-3
  GI50: 58300 nM (inactive)
OVCAR-4
  GI50: > 100 µM (inactive)
NCI-H522
  GI50: > 100 µM (inactive)
SK-MEL-28
  GI50: > 100 µM (inactive)
SN12C
  GI50: 99.5 µM (inactive)
HL-60
  GI50: > 94.6 µM (inactive)
CAKI-1
  GI50: > 100 µM (inactive)
A549
  GI50: > 100 µM (inactive)
M19-MEL
  GI50: > 100 µM (inactive)
HOP-92
  GI50: 16.1 µM (inactive)
NCI-H226
  GI50: 92.3 µM (inactive)
UO-31
  GI50: > 100 µM (inactive)
OVCAR-5
  GI50: > 100 µM (inactive)
MDA-MB-231
  GI50: 26.5 µM (inactive)
U-251
  GI50: 27.9 µM (inactive)
SF-268
  GI50: 51.1 µM (inactive)
COLO 205
  GI50: > 100 µM (inactive)
K562
  GI50: > 100 µM (inactive)
UACC-257
  GI50: > 100 µM (inactive)
HT-29
  GI50: > 46.5 µM (inactive)
SK-MEL-2
  GI50: > 67.5 µM (inactive)
DMS-273
  GI50: > 100 µM (inactive)
MOLT-4
  GI50: > 84.5 µM (inactive)
RXF 631
  GI50: 35.6 µM (inactive)
CCRF-CEM
  GI50: > 52.6 µM (inactive)
HOP-18
  GI50: > 100 µM (inactive)
DLD-1
  GI50: > 100000 nM (inactive)
RXF 393
  GI50: 30.3 µM (inactive)
SW-620
  GI50: > 100 µM (inactive)
DMS-114
  GI50: > 100 µM (inactive)
SF-539
  GI50: 35.9 µM (inactive)
RPMI-8226
  GI50: > 67.5 µM (inactive)
ACHN
  GI50: > 57.1 µM (inactive)
UACC-62
  GI50: > 100 µM (inactive)
NCI-H23
  GI50: > 56 µM (inactive)
SNB-19
  GI50: 38.5 µM (inactive)
TK-10
  GI50: 39.4 µM (inactive)
MDA-MB-435
  GI50: > 100 µM (inactive)
KM12
  GI50: > 100 µM (inactive)
NCI/ADR-RES
  GI50: 71.9 µM (inactive)
KM-20L2
  GI50: > 100 µM (inactive)
MDA-N
  GI50: > 100 µM (inactive)
SNB-78
  GI50: 37.6 µM (inactive)
SK-MEL-5
  GI50: 68.2 µM (inactive)
HOP-62
  GI50: 24.3 µM (inactive)
M14
  GI50: > 100 µM (inactive)
HCT-116
  GI50: > 71 µM (inactive)
HCC 2998
  GI50: > 100 µM (inactive)
NCI-H460
  GI50: > 100 µM (inactive)
Malme-3M
  GI50: > 74 µM (inactive)
SR
  GI50: > 100 µM (inactive)
LOX IMVI
  GI50: 99.1 µM (inactive)
T47D
  GI50: > 100 µM (inactive)
EKVX
  GI50: > 94.2 µM (inactive)
A498
  GI50: 48.1 µM (inactive)
LXFL 529
  GI50: 71.4 µM (inactive)
786-0
  GI50: 21.5 µM (inactive)
IGROV-1
  GI50: > 83.8 µM (inactive)
HCT-15
  GI50: > 100 µM
SF-295
  GI50: 27.6 µM (inactive)
PC-3
  GI50: > 100 µM (inactive)
BT-549
  GI50: > 62.4 µM (inactive)
OVCAR-3
  GI50: > 71.9 µM (inactive)
Hs-578T
  GI50: 34 µM (inactive)
OVCAR-8
  GI50: > 100 µM (inactive)
DU-145
  GI50: > 96.2 µM (inactive)
SNB-75
  GI50: 20.6 µM (inactive)

## C/C=C(\CCC1NCCc2c1[nH]c1ccccc21)[Si](C)(C)C (stereo not drawn)
SK-OV-3
  GI50: 13.4 µM (inactive) and 10.1 µM (inactive)
OVCAR-4
  GI50: 3.03 µM (inactive) and 5.81 µM (inactive)
SN12C
  GI50: 5.89 µM (inactive) and 3.32 µM (inactive)
A549
  GI50: 10.1 µM (inactive) and 6.59 µM (inactive)
NCI-H226
  GI50: 10.9 µM (inactive) and 7.76 µM (inactive)
MDA-MB-231
  GI50: 2.14 µM (inactive)
SF-268
  GI50: 11.2 µM (inactive) and 5.96 µM (inactive)
COLO 205
  GI50: 14.3 µM (inactive) and 1.8 µM (inactive)
K562
  GI50: 3.57 µM (inactive) and 6.67 µM (inactive)
MOLT-4
  GI50: 2.74 µM (inactive) and 4.35 µM (inactive)
RXF 631
  GI50: 5.05 µM (inactive) and 7.28 µM (inactive)
HOP-18
  GI50: 6.79 µM (inactive) and 20.1 µM (inactive)
DLD-1
  GI50: 3.49 µM (inactive) and 6.24 µM (inactive)
MCF7
  GI50: 2.02 µM (inactive)
UACC-62
  GI50: 5.86 µM (inactive) and 5.27 µM (inactive)
MDA-MB-435
  GI50: 3.37 µM (inactive)
MDA-N
  GI50: 2.09 µM (inactive)
SNB-78
  GI50: 4.9 µM (inactive) and 9.31 µM (inactive)
HOP-62
  GI50: 11.9 µM (inactive) and 14.5 µM (inactive)
Malme-3M
  GI50: 1.77 µM (inactive) and 1.21 µM (inactive)
LOX IMVI
  GI50: 2.28 µM (inactive) and 20.3 µM (inactive)
XF498
  GI50: 1.41 µM (inactive) and 1.8 µM (inactive)
T47D
  GI50: 2.22 µM (inactive)
EKVX
  GI50: 14.7 µM (inactive) and 8.41 µM (inactive)
A498
  GI50: 2.67 µM (inactive) and 6.5 µM (inactive)
LXFL 529
  GI50: 1.78 µM (inactive) and 5.01 µM (inactive)
HCT-15
  GI50: 18.7 µM and 2.25 µM
PC-3
  GI50: 5.01 µM (inactive)
BT-549
  GI50: 10.8 µM (inactive)
Hs-578T
  GI50: 2.05 µM (inactive)
OVCAR-8
  GI50: 4.16 µM (inactive) and 7.82 µM (inactive)
DU-145
  GI50: 12.6 µM (inactive)
SNB-75
  GI50: 5.97 µM (inactive) and 6.5 µM (inactive)
